US20240425464A1, “Substituted Monohydrazides as Potent Antifungal Agents” (University of Kentucky Research Foundation, priority 2023, published 2024)
Converted amounts (≈) assume the structure as drawn. Where two headings read alike, the source gives them in different places.

Tests used:
Assay in all cases: MIC determination by in vitro antifungal assay
Type in all cases: cell-based, Candida auris
C. auris AR Bank #381 = system: C. auris AR Bank #381
Description: (§1) The antifungal agent amphotericin B (AmB) was purchased from VWR (Radnor PA, USA). AmB was dissolved in DMSO at a final concentration of 5 mg/mL and was stored at −20° C., protected from light. Candida albicans American Type Culture Collection (ATCC) 10231 (strain A), C. albicans ATCC 64124 (B), and C. albicans ATCC MYA-2876 (C) were obtained from Utah State University. C. albicans ATCC 90819 (D), C. albicans ATCC MYA-2310 (E), C. albicans ATCC MYA-1237 (F), C. albicans ATCC MYA-1003 (G), Candida glabrata ATCC 2001 (H), Candida krusei ATCC 6258 (I), Candida parapsilosis ATCC 22019 (J), Cryptococcus neoformans ATCC MYA-895 (M), Aspergillus terreus ATCC MYA-3633 (N), and Aspergillus flavus ATCC MYA-3631 (0) were obtained from the American Type Culture Collection (ATCC; Manassas, VA, USA). Aspergillus nidulans ATCC 38163 (P) was obtained from University of Kentucky. Clinically derived Aspergillus fumigatus NRRL 163 (Q), A. fumigatus NRRL 5109 (R), and A. fumigatus NRRL 6113 (S) were obtained from Northern Regional Research Laboratory (NRRL). Candida auris 384 (K), C. auris 390 (L), and fungal strains 381-400 (including 10 C. auris (AR Bank #381-390), 3 Candida duobushaemulonii (AR Bank #391, AR Bank #392, and AR Bank #394), 2 Candida haemulonii (AR Bank #393 and AR Bank #395), 1 Kodameae ohmeri (AR Bank #396), 1 C. krusei (AR Bank #397), 1 Candida lusitaniae (AR Bank #398), and 2 Saccharomyces cerevisiae strains (AR Bank #399 and AR Bank #400)) were part of a larger fungal library from the AR Bank maintained by the Centers for Disease Control and Prevention (CDC; Atlanta, GA, USA). Filamentous fungi and yeasts were cultivated at 35° C. in RPMI 1640 medium (with L-glutamine, without sodium bicarbonate, Sigma-Aldrich, St. Louis, MO) buffered to a pH of 7.0 with 0.165 M morpholinepropanesulfonic acid (MOPS) buffer (Sigma-Aldrich). For cytotoxicity assays, HepG2 and the mouse macrophage cell line J774A.1 were obtained from University of Kentucky. The human embryonic kidney cell line, HEK-293, was bought from the ATCC. Mammalian cells were grown in Dulbecco's Modified Eagle's Medium (DMEM) (from VWR) with 10% fetal bovine serum (FBS) (from VWR) and 1% Pen/Strep (from ATCC). Cell lines were cultured at 37° C. with 5% CO2 and passaged by trypsinization with 0.05% trypsin: 0.53 mM EDTA (from Sigma-Aldrich).
(§2) From the actively growing yeast culture, 100 µL were then transferred to 900 μL of RPMI 1640 medium and re-adjusted to achieve OD600 of 0.12 (˜1×10^6 CFU/mL). The cell suspension was further diluted to achieve 1:100 in RPMI 1640 medium.

C. auris AR Bank #388 = system: C. auris AR Bank #388
Description: as §1, §2

C. auris AR Bank #382 = system: C. auris AR Bank #382
Description: as §1, §2

C. auris AR Bank #386 = system: C. auris AR Bank #386
Description: as §1, §2

C. auris AR Bank #383 = system: C. auris AR Bank #383
Description: as §1, §2

C. auris AR Bank #387 = system: C. auris AR Bank #387
Description: as §1, §2

C. auris AR Bank #389 = system: C. auris AR Bank #389
Description: as §1, §2

C. auris AR Bank #385 = system: C. auris AR Bank #385
Description: as §1, §2

[1] = Candidozyma auris, C. auris AR Bank #381, read-out: MIC
[2] = Candidozyma auris, C. auris AR Bank #388, read-out: MIC
[3] = Candidozyma auris, C. auris AR Bank #382, read-out: MIC
[4] = Candidozyma auris, C. auris AR Bank #386, read-out: MIC
[5] = Candidozyma auris, C. auris AR Bank #383, read-out: MIC
[6] = Candidozyma auris, C. auris AR Bank #387, read-out: MIC
[7] = Candidozyma auris, C. auris AR Bank #389, read-out: MIC
[8] = Candidozyma auris, C. auris AR Bank #385, read-out: MIC
[9] = C. auris AR Bank # 381 (Table 2B)
[10] = C. auris AR Bank # 388 (Table 2B)
[11] = C. auris AR Bank # 382 (Table 2B)
[12] = C. auris AR Bank # 386 (Table 2B)
[13] = C. auris AR Bank # 383 (Table 2B)
[14] = C. auris AR Bank # 387 (Table 2B)
[15] = C. auris AR Bank # 389 (Table 2B)
[16] = C. auris AR Bank # 385 (Table 2B)
[17] = Candidozyma auris, C. auris AR Bank # 381 (Table 2B), read-out: MIC
[18] = Candidozyma auris, C. auris AR Bank # 388 (Table 2B), read-out: MIC
[19] = Candidozyma auris, C. auris AR Bank # 382 (Table 2B), read-out: MIC
[20] = Candidozyma auris, C. auris AR Bank # 386 (Table 2B), read-out: MIC
[21] = Candidozyma auris, C. auris AR Bank # 383 (Table 2B), read-out: MIC
[22] = Candidozyma auris, C. auris AR Bank # 387 (Table 2B), read-out: MIC
[23] = Candidozyma auris, C. auris AR Bank # 389 (Table 2B), read-out: MIC
[24] = Candidozyma auris, C. auris AR Bank # 385 (Table 2B), read-out: MIC

Row | SMILES | MIC (C. auris AR Bank #381; [1]) | MIC (C. auris AR Bank #388; [2]) | MIC (C. auris AR Bank #382; [3]) | MIC (C. auris AR Bank #386; [4]) | MIC (C. auris AR Bank #383; [5]) | MIC (C. auris AR Bank #387; [6]) | MIC (C. auris AR Bank #389; [7]) | MIC (C. auris AR Bank #385; [8]) | MIC (C. auris AR Bank #381; [9]) | MIC (C. auris AR Bank #388; [10]) | MIC (C. auris AR Bank #382; [11]) | MIC (C. auris AR Bank #386; [12]) | MIC (C. auris AR Bank #383; [13]) | MIC (C. auris AR Bank #387; [14]) | MIC (C. auris AR Bank #389; [15]) | MIC (C. auris AR Bank #385; [16]) | MIC (C. auris AR Bank #381; [17]) | MIC (C. auris AR Bank #388; [18]) | MIC (C. auris AR Bank #382; [19]) | MIC (C. auris AR Bank #386; [20]) | other results
1 | O=C(NNc1ccc(F)cc1F)c1ccccn1 [Compound 2g] | 0.49 µg/mL (≈ 1.97 µM) | 0.12 µg/mL (≈ 0.482 µM) | 0.49 µg/mL (≈ 1.97 µM) | 0.49 µg/mL (≈ 1.97 µM) | 0.49 µg/mL (≈ 1.97 µM) | 0.12 µg/mL (≈ 0.482 µM) | 0.24 µg/mL (≈ 0.963 µM) | 0.49 µg/mL (≈ 1.97 µM) | – | – | – | – | – | – | – | – | – | – | – | – | –
2 | O=C(NNc1cc(F)ccc1F)c1ccccn1 [Compound 2h] | 1.95 µg/mL (≈ 7.82 µM) | 0.49 µg/mL (≈ 1.97 µM) | 0.24 µg/mL (≈ 0.963 µM) | 0.12 µg/mL (≈ 0.482 µM) | 0.49 µg/mL (≈ 1.97 µM) | 0.49 µg/mL (≈ 1.97 µM) | 0.49 µg/mL (≈ 1.97 µM) | 0.49 µg/mL (≈ 1.97 µM) | – | – | – | – | – | – | – | – | – | – | – | – | –
3 | O=C(NNc1cc(F)cc(F)c1)c1ccccn1 [Compound 2i] | 0.98 µg/mL (≈ 3.93 µM) | 0.24 µg/mL (≈ 0.963 µM) | 0.12 µg/mL (≈ 0.482 µM) | ≤ 0.06 µg/mL | 0.24 µg/mL (≈ 0.963 µM) | 0.24 µg/mL (≈ 0.963 µM) | 0.24 µg/mL (≈ 0.963 µM) | 0.24 µg/mL (≈ 0.963 µM) | – | – | – | – | – | – | – | – | – | – | – | – | –
4 | O=C(NNc1cc(Cl)cc(Cl)c1)c1ccccn1 [Compound 2j] | 3.9 µg/mL (≈ 13.8 µM) | 3.9 µg/mL (≈ 13.8 µM) | 0.98 µg/mL (≈ 3.47 µM) | 1.98 µg/mL (≈ 7.02 µM) | 1.95 µg/mL (≈ 6.91 µM) | 0.98 µg/mL (≈ 3.47 µM) | 1.95 µg/mL (≈ 6.91 µM) | 1.95 µg/mL (≈ 6.91 µM) | – | – | – | – | – | – | – | – | – | – | – | – | –
5 | COc1cccc(NNC(=O)c2ccc(F)cn2)c1 [Compound 3c] | – | – | – | – | – | – | – | – | 0.98 μg/mL^−1 | 0.98 μg/mL^−1 | 0.49 μg/mL^−1 | 0.98 μg/mL^−1 | 0.98 μg/mL^−1 | 0.98 μg/mL^−1 | 0.98 μg/mL^−1 | 0.49 μg/mL^−1 | – | – | – | – | –
6 | O=C(NNc1ccc(F)cc1)c1ccc(F)cn1 [Compound 3d] | – | – | – | – | – | – | – | – | 1.95 μg/mL^−1 | 1.95 μg/mL^−1 | 0.98 μg/mL^−1 | 1.95 μg/mL^−1 | 1.95 μg/mL^−1 | 0.98 μg/mL^−1 | 1.95 μg/mL^−1 | 0.98 μg/mL^−1 | – | – | – | – | –
7 | O=C(NNc1ccc(Cl)cc1)c1ccc(F)cn1 [Compound 3e] | – | – | – | – | – | – | – | – | 7.8 μg/mL^−1 | 7.8 μg/mL^−1 | 7.8 μg/mL^−1 | 7.8 μg/mL^−1 | 3.9 μg/mL^−1 | 7.8 μg/mL^−1 | 7.8 μg/mL^−1 | 1.95 μg/mL^−1 | – | – | – | – | –
8 | O=C(NNc1ccc(F)cc1F)c1ccc(F)cn1 [Compound 3g] | – | – | – | – | – | – | – | – | – | – | – | – | – | – | – | – | 1.95 µg/mL (≈ 7.3 µM) | 1.95 µg/mL (≈ 7.3 µM) | 1.95 µg/mL (≈ 7.3 µM) | 1.95 µg/mL (≈ 7.3 µM) | MIC (C. auris AR Bank #383; [21]): 1.95 µg/mL (≈ 7.3 µM); MIC (C. auris AR Bank #387; [22]): 0.98 µg/mL (≈ 3.67 µM); MIC (C. auris AR Bank #389; [23]): 1.95 µg/mL (≈ 7.3 µM); MIC (C. auris AR Bank #385; [24]): 0.49 µg/mL (≈ 1.83 µM)
9 | O=C(NNc1ccc(F)cc1)c1ccc(Br)cn1 [Compound 4d] | – | – | – | – | – | – | – | – | – | – | – | – | – | – | – | – | 1.95 µg/mL (≈ 6.29 µM) | 1.95 µg/mL (≈ 6.29 µM) | 1.95 µg/mL (≈ 6.29 µM) | 3.9 µg/mL (≈ 12.6 µM) | MIC (C. auris AR Bank #383; [21]): 7.8 µg/mL (≈ 25.2 µM); MIC (C. auris AR Bank #387; [22]): 3.9 µg/mL (≈ 12.6 µM); MIC (C. auris AR Bank #389; [23]): 3.9 µg/mL (≈ 12.6 µM); MIC (C. auris AR Bank #385; [24]): 1.95 µg/mL (≈ 6.29 µM)
10 | O=C(NNc1ccc(F)cc1)c1cccc(F)n1 [Compound 5d] | – | – | – | – | – | – | – | – | – | – | – | – | – | – | – | – | 0.98 µg/mL (≈ 3.93 µM) | 0.49 µg/mL (≈ 1.97 µM) | 0.98 µg/mL (≈ 3.93 µM) | 0.98 µg/mL (≈ 3.93 µM) | MIC (C. auris AR Bank #383; [21]): 1.95 µg/mL (≈ 7.82 µM); MIC (C. auris AR Bank #387; [22]): 0.49 µg/mL (≈ 1.97 µM); MIC (C. auris AR Bank #389; [23]): 0.98 µg/mL (≈ 3.93 µM); MIC (C. auris AR Bank #385; [24]): 0.49 µg/mL (≈ 1.97 µM)
